Measurements reported in patent publication US8926966B1 (Regents of the University of California, priority 1990, dated 2015).

Test system: IDDM associated autoantibodies in sera
Assay: ELISA of sera on plate-bound human GAD65 peptides
Format: binding
Conditions: for number of IDDM (at risk, pre-IDDM, at onset) patients positive (X) for the peptide (unlabelled sum line): IDDM sera of Table 11
Experimental: Patient sera and most control sera were those used in a previous study (Kaufman, et al., J. Clin. Investigation, supra) All samples were coded and tested in a blind manner. Peptides were synthesized using an automatic instrument (Applied Biosystems, Foster City, Calif.) and standard conditions. Peptides were dissolved in 60 mM sodium bicarbonate buffer (pH 9.6) at 20 ug/ml and 100 ul of each was added to duplicated wells of a 96 well Nunc-Immuno Plate. Peptides were allowed to bind at 4° C. overnight. The plates were then washed three times with PBS+0.1% Tween 20 (wash buffer), after which the plates were pre-absorbed with 3% BSA in sodium bicarbonate buffer for 0.5 hours at 37° C., or at room temperature overnight. The plates were then washed 5 times with the above wash buffer. 100 ul of serum at a 1/300 dilution in PBS+0.1% Tween 20 and 1% BSA was added to each well and antibodies were allowed to bind for 1 hour at 37° C. The plates were washed 5 times with wash buffer. 100 ul of a 1/600 dilution of HRP-goat anti-human IgG (BRL, Gaithersberg, Md.) was added to each well and allowed to bind for 1 hour at 37° C. The plates were then washed 7 times and 100 ul of substrate buffer was added to each well for 30 minutes at room temperature. The color development was measured at 410 nm using an ELISA plate reader (ICN, Biomedicals, Costa Mesa, Calif.). Positive sera were defined as: OD410 of the sample/negative control ≧3.0.

[1] = IDDM At Onset serum 291, 1/300 dilution
[2] = control serum 5620, 1/300 dilution
[3] = IDDM At Onset serum 048, 1/300 dilution
[4] = IDDM At Risk serum 052, 1/300 dilution
[5] = Pre-IDDM serum R.S. (2), 1/300 dilution
[6] = IDDM At Onset serum 705, 1/300 dilution
[7] = Pre-IDDM serum J.B. (2), 1/300 dilution
[8] = Pre-IDDM serum P.T. (1), 1/300 dilution
[9] = Pre-IDDM serum P.T. (2), 1/300 dilution
[10] = IDDM At Onset serum S.H., 1/300 dilution
[11] = IDDM At Risk serum L.I., 1/300 dilution
[12] = Pre-IDDM serum 723, 1/300 dilution

ERANSVTWNPHKMMGVPLQC [Peptide 26]
immunoreactivity of serum with GAD65 peptide [1]: X (X = positive for immunoreactivity as defined by 00/background^3.0) | number of IDDM (at risk, pre-IDDM, at onset) patients positive (X) for the peptide (unlabelled sum line): 1 | immunoreactivity of serum with GAD65 peptide [2]: b (b = borderline response (00/background ?2.5-2.9).)

KPCSCSKVDVNYAFLHATDL [Peptide 6]
immunoreactivity of serum with GAD65 peptide [3]: X (X = positive for immunoreactivity as defined by 00/background^3.0) | immunoreactivity of serum with GAD65 peptide [4]: X (X = positive for immunoreactivity as defined by 00/background^3.0) | number of IDDM (at risk, pre-IDDM, at onset) patients positive (X) for the peptide (unlabelled sum line): 2 | immunoreactivity of serum with GAD65 peptide [5]: b (b = borderline response (00/background ?2.5-2.9).)

AFTSEHSHFSLKKGAAALGI [Peptide 19]
immunoreactivity of serum with GAD65 peptide [4]: X (X = positive for immunoreactivity as defined by 00/background^3.0) | number of IDDM (at risk, pre-IDDM, at onset) patients positive (X) for the peptide (unlabelled sum line): 1

KHYDLSYDTGDKALQCGRHV [Peptide 29]
immunoreactivity of serum with GAD65 peptide [3]: X (X = positive for immunoreactivity as defined by 00/background^3.0) | immunoreactivity of serum with GAD65 peptide [6]: X (X = positive for immunoreactivity as defined by 00/background^3.0) | immunoreactivity of serum with GAD65 peptide [4]: X (X = positive for immunoreactivity as defined by 00/background^3.0) | number of IDDM (at risk, pre-IDDM, at onset) patients positive (X) for the peptide (unlabelled sum line): 4 | immunoreactivity of serum with GAD65 peptide [7]: b (b = borderline response (00/background ?2.5-2.9).) | immunoreactivity of serum with GAD65 peptide [8]: X (X = positive for immunoreactivity as defined by 00/background^3.0) | immunoreactivity of serum with GAD65 peptide [9]: X (X = positive for immunoreactivity as defined by 00/background^3.0)

LLYGDAEKPAESGGSQPPRA [Peptide 4]
immunoreactivity of serum with GAD65 peptide [1]: X (X = positive for immunoreactivity as defined by 00/background^3.0) | immunoreactivity of serum with GAD65 peptide [7]: b (b = borderline response (00/background ?2.5-2.9).) | immunoreactivity of serum with GAD65 peptide [9]: b (b = borderline response (00/background ?2.5-2.9).)

AALGIGTDSVILIKCDERGK [Peptide 20]
controls whose sera recognized the peptide (13 control sera): none | immunoreactivity of serum with GAD65 peptide [3]: X (X = positive for immunoreactivity as defined by 00/background^3.0) | immunoreactivity of serum with GAD65 peptide [1]: X (X = positive for immunoreactivity as defined by 00/background^3.0) | immunoreactivity of serum with GAD65 peptide [6]: X (X = positive for immunoreactivity as defined by 00/background^3.0) | immunoreactivity of serum with GAD65 peptide [10]: X (X = positive for immunoreactivity as defined by 00/background^3.0) | immunoreactivity of serum with GAD65 peptide [4]: X (X = positive for immunoreactivity as defined by 00/background^3.0) | immunoreactivity of serum with GAD65 peptide [11]: b (b = borderline response (00/background ?2.5-2.9).) | number of IDDM (at risk, pre-IDDM, at onset) patients positive (X) for the peptide (unlabelled sum line): 7 | immunoreactivity of serum with GAD65 peptide [12]: X (X = positive for immunoreactivity as defined by 00/background^3.0) | patients whose sera recognized the peptide (patients previously shown to be 64K positive): 6/8

KGTTGFEAHVDKCLELAEYLYN [Peptide 31]
immunoreactivity of serum with GAD65 peptide [4]: b (b = borderline response (00/background ?2.5-2.9).) | immunoreactivity of serum with GAD65 peptide [8]: b (b = borderline response (00/background ?2.5-2.9).) | immunoreactivity of serum with GAD65 peptide [9]: b (b = borderline response (00/background ?2.5-2.9).)

LEAKQKGFVPFLVSATAGTT [Peptide 22]
immunoreactivity of serum with GAD65 peptide [1]: X (X = positive for immunoreactivity as defined by 00/background^3.0) | immunoreactivity of serum with GAD65 peptide [6]: X (X = positive for immunoreactivity as defined by 00/background^3.0) | number of IDDM (at risk, pre-IDDM, at onset) patients positive (X) for the peptide (unlabelled sum line): 2 | immunoreactivity of serum with GAD65 peptide [7]: b (b = borderline response (00/background ?2.5-2.9).) | immunoreactivity of serum with GAD65 peptide [9]: b (b = borderline response (00/background ?2.5-2.9).)

DICKKYKIWMHVDAAWGGGLLMS [Peptide 24]
immunoreactivity by both control and patient sera: often positive | immunoreactivity of serum with GAD65 peptide [3]: X (X = positive for immunoreactivity as defined by 00/background^3.0) | immunoreactivity of serum with GAD65 peptide [1]: X (X = positive for immunoreactivity as defined by 00/background^3.0) | immunoreactivity of serum with GAD65 peptide [6]: X (X = positive for immunoreactivity as defined by 00/background^3.0) | immunoreactivity of serum with GAD65 peptide [10]: X (X = positive for immunoreactivity as defined by 00/background^3.0) | immunoreactivity of serum with GAD65 peptide [4]: X (X = positive for immunoreactivity as defined by 00/background^3.0) | immunoreactivity of serum with GAD65 peptide (IDDM At Risk serum 356, 1/300 dilution): X (X = positive for immunoreactivity as defined by 00/background^3.0) | immunoreactivity of serum with GAD65 peptide (IDDM At Risk serum 825, 1/300 dilution): X (X = positive for immunoreactivity as defined by 00/background^3.0) | immunoreactivity of serum with GAD65 peptide [11]: X (X = positive for immunoreactivity as defined by 00/background^3.0) | immunoreactivity of serum with GAD65 peptide [12]: X (X = positive for immunoreactivity as defined by 00/background^3.0) | immunoreactivity of serum with GAD65 peptide (Pre-IDDM serum B.Y. (1), 1/300 dilution): X (X = positive for immunoreactivity as defined by 00/background^3.0) | immunoreactivity of serum with GAD65 peptide (Pre-IDDM serum B.Y. (2), 1/300 dilution): X (X = positive for immunoreactivity as defined by 00/background^3.0) | immunoreactivity of serum with GAD65 peptide (Pre-IDDM serum J.A., 1/300 dilution): X (X = positive for immunoreactivity as defined by 00/background^3.0) | immunoreactivity of serum with GAD65 peptide (Pre-IDDM serum J.B. (1), 1/300 dilution): X (X = positive for immunoreactivity as defined by 00/background^3.0) | immunoreactivity of serum with GAD65 peptide [7]: X (X = positive for immunoreactivity as defined by 00/background^3.0) | immunoreactivity of serum with GAD65 peptide [8]: X (X = positive for immunoreactivity as defined by 00/background^3.0) | immunoreactivity of serum with GAD65 peptide [9]: X (X = positive for immunoreactivity as defined by 00/background^3.0) | immunoreactivity of serum with GAD65 peptide (Pre-IDDM serum R.S. (1), 1/300 dilution): X (X = positive for immunoreactivity as defined by 00/background^3.0) | immunoreactivity of serum with GAD65 peptide [5]: X (X = positive for immunoreactivity as defined by 00/background^3.0) | immunoreactivity of serum with GAD65 peptide (control serum 1688, 1/300 dilution): X (X = positive for immunoreactivity as defined by 00/background^3.0) | immunoreactivity of serum with GAD65 peptide (control serum 4380, 1/300 dilution): X (X = positive for immunoreactivity as defined by 00/background^3.0) | immunoreactivity of serum with GAD65 peptide [2]: X (X = positive for immunoreactivity as defined by 00/background^3.0) | immunoreactivity of serum with GAD65 peptide (control serum 5748, 1/300 dilution): X (X = positive for immunoreactivity as defined by 00/background^3.0) | immunoreactivity of serum with GAD65 peptide (control serum A.P., 1/300 dilution): X (X = positive for immunoreactivity as defined by 00/background^3.0) | immunoreactivity of serum with GAD65 peptide (control serum FA2, 1/300 dilution): X (X = positive for immunoreactivity as defined by 00/background^3.0) | immunoreactivity of serum with GAD65 peptide (control serum FA8, 1/300 dilution): X (X = positive for immunoreactivity as defined by 00/background^3.0) | immunoreactivity of serum with GAD65 peptide (control serum FA9, 1/300 dilution): X (X = positive for immunoreactivity as defined by 00/background^3.0) | immunoreactivity of serum with GAD65 peptide (control serum FA11, 1/300 dilution): X (X = positive for immunoreactivity as defined by 00/background^3.0) | immunoreactivity of serum with GAD65 peptide (control serum FA12, 1/300 dilution): X (X = positive for immunoreactivity as defined by 00/background^3.0) | immunoreactivity of serum with GAD65 peptide (control serum H.B., 1/300 dilution): X (X = positive for immunoreactivity as defined by 00/background^3.0) | immunoreactivity of serum with GAD65 peptide (control serum P.T., 1/300 dilution): X (X = positive for immunoreactivity as defined by 00/background^3.0) | immunoreactivity of serum with GAD65 peptide (control serum S.M., 1/300 dilution): X (X = positive for immunoreactivity as defined by 00/background^3.0)

ATHQDIDFLIEEIERLGQDL [Peptide 38]
immunoreactivity of serum with GAD65 peptide [3]: X (X = positive for immunoreactivity as defined by 00/background^3.0) | immunoreactivity of serum with GAD65 peptide [10]: b (b = borderline response (00/background ?2.5-2.9).) | immunoreactivity of serum with GAD65 peptide [4]: b (b = borderline response (00/background ?2.5-2.9).) | number of IDDM (at risk, pre-IDDM, at onset) patients positive (X) for the peptide (unlabelled sum line): 1
